In patent US20220315567A1 (priority 2016, published 2022):
Where a name gives a salt, the structure may show the parent alone. Read-outs that look alike come from different tables or passages of the source.

Columns and labels:
human OPRM1 (μ, MOR) [1] = molecular target: T1, human OPRM1 (μ, MOR) (Homo sapiens, UniProt P35372); experiment: cell-based; details: for Emax: OPRM1, read-out: β-Arrestin Emax; for EC50: PathHunter human OPRM1 Arrestin CHO-K1 cell line, read-out: β-Arrestin EC50
T1 construct: host or cells: CHO-K1
T1 sequence (P35372 whole entry): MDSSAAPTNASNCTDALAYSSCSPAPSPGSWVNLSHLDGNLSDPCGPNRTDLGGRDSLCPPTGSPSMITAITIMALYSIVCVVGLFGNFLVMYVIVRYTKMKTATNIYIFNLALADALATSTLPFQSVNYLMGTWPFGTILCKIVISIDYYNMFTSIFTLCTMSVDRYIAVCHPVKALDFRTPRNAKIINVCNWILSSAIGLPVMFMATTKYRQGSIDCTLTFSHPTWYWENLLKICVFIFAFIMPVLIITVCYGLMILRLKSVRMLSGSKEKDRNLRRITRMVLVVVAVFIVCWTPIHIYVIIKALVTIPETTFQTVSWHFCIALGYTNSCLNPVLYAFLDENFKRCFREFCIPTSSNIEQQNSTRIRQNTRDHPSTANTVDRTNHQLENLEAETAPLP
Outline: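 β-Arrestin-2 recruitment was measured in PathHunter CHO-K1 cells expressing ED-tagged human OPRM1 and EA-fused arrestin. Agonist-driven recruitment restores β-galactosidase activity by enzyme fragment complementation, read by chemiluminescence.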

human OPRM1 (μ, MOR) [2] = molecular target: T1, human OPRM1 (μ, MOR); experiment: cell-based; details: for Emax: OPRM1, read-out: cAMP Emax; for EC50: PathHunter human OPRM1 Arrestin CHO-K1 cell line, read-out: cAMP EC50
Protocol: G-protein signaling was measured via second messenger cAMP modulation. Detection of cAMP modulation was accomplished in the PathHunter human OPRM1 (μ, MOR) Arrestin CHO-K1 cell line using the Dynamic2 cAMP Kit from Cisbio.

human OPRM1 (μ, MOR) [3] = molecular target: T1, human OPRM1 (μ, MOR); assay type: cell-based; details: for ΔRA of compound: relative activity from EC50 and Emax of β-arrestin vs cAMP, lower RA = more G-protein biased
Outline: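 Activity measured in cell assays for G-protein signaling and for β-arrestin recruitment. A relative activity (RA) value was derived by comparing the two readouts, taking both EC50 and Emax into account.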

[4] = healthy volunteers; cited from earlier work
[5] = patients following bunionectomy; cited from earlier work

Structure (SMILES)	melting point	Emax (human OPRM1 (μ, MOR) [1]) [%]	EC50 (human OPRM1 (μ, MOR) [1]) [µM]	Emax (human OPRM1 (μ, MOR) [2]) [%]	EC50 (human OPRM1 (μ, MOR) [2]) [µM]	Bias Factor (ΔRA of compound relative to ΔRA of DAMGO) × 10 (human OPRM1 (μ, MOR) [3])	ΔRA of compound (human OPRM1 (μ, MOR) [3])	β-Arrestin Emax (human OPRM1 (μ, MOR) [1]) [%]	cAMP Emax (human OPRM1 (μ, MOR) [2]) [%]	on-target adverse effects (nausea, decrease in respiratory drive) [4]	level of analgesia [5]
CN(C)C(CNC(=O)NC1CCc2ccccc2C1)c1ccccc1 (stereo not shown) (as salt: hydrochloride) [Compound 19a, 1-(2-(Dimethylamino)-2-phenylethyl)-3-(1,2,3,4-tetrahydronaphthalen-2-yl)urea hydrochloride]	160 to 161 °C										
CN(C)C(CNC(=O)N1Cc2ccc(F)cc2C1)c1ccccc1 (stereo not shown) (as salt: hydrochloride) [Compound 20a, N-(2-(Dimethylamino)-2-phenylethyl)-5-fluoroisoindoline-2-carboxamide hydrochloride]	148 to 150 °C										
CN(C)C(CNC(=O)N1Cc2ccc(F)cc2C1)c1ccsc1 (single isomer, unassigned) (as salt: hydrochloride) [2a-ent-(+), (+)—N-(2-(Dimethylamino)-2-(thiophen-3-yl)ethyl)-5-fluoroisoindoline-2-carboxamide hydrochloride]	150 to 155 °C (dec.)										
CN(C)C(CNC(=O)N1Cc2ccc(F)cc2C1)c1ccc(O)cc1 (stereo not shown) [Compound 21, N-(2-(Dimethylamino)-2-(4-hydroxyphenyl)ethyl)-5-fluoroisoindoline-2-carboxamide]	180 to 185 °C (dec.)	< 1	> 100	4.5	> 100						
CN(C(=O)OC(C)(C)C)C(CNC(=O)N1Cc2ccc(F)cc2C1)c1ccsc1 (stereo not shown) [Compound 34, tert-Butyl (2-(5-fluoroisoindoline-2-carboxamido)-1-(thiophen-3-yl)ethyl)(methyl)carbamate]	182 to 184 °C	< 1	> 100	2.6	> 100						
CN(C)C(CNC(=O)N1Cc2cccc(C#N)c2C1)c1ccsc1 (stereo not shown) [Compound 44]	159 to 161 °C	5.3	> 100	51.4	0.162	<−14.83	<−2.96				
CN(C)C(CNC(=O)N1CCCc2cc(O)ccc21)c1ccsc1 (stereo not shown) [Compound 53]	163 °C (dec.)	20.1	3.79	120	0.267	−4.47	−1.93				
CN(C)C1(CNC(=O)N2Cc3ccccc3C2)CCCCC1 [Compound 54]	225 to 227 °C	20.8	4.42	113	0.396	−3.04	−1.78				
CN(C)C1(CNC(=O)N[C@@H]2CCc3ccccc3C2)CCCCC1 [Compound 55]	192 to 194 °C	< 1	> 100	36.6	2.85	<−14.83	<−2.96				
CN(C)C1(CNC(=O)N[C@H]2CCc3ccccc3C2)CCCCC1 [Compound 56]	191 to 193 °C	< 1	> 100	43.3	7.74	<−14.83	<−2.96				
CN(C)C1(CNC(=O)N2Cc3ccc(F)cc3C2)CCOCC1 [Compound 61]	241 to 243 °C	14.5	> 100	104	1.17	<−14.83	<−2.96				
CN(C)C(C)(C)CNC(=O)N1Cc2ccc(F)cc2C1 [Compound 62]	200 to 202 °C	< 1	> 100	81.8	21	<−14.83	<−2.96				
CN(C)C1(CNC(=O)N[C@H]2CCc3ccccc3C2)CCCC1 [Compound 65]	204 to 206 °C	< 1	> 100	< 10	> 100						
CN(C)C(CNC(=O)N[C@@H]1CCc2ccccc2C1)c1ccsc1 (stereo partly shown) [Compound 66]	164 to 166 °C					<−14.83	<−2.96				
CN(C)C(CNC(=O)N[C@H]1CCc2ccccc2C1)c1ccsc1 (stereo partly shown) [Compound 67]	165 to 167 °C		> 100		0.013	<−14.83	<−2.96	2.6	50.9		
COc1ccc(C(CNC(=O)N2CCCc3cc(F)ccc32)N(C)C)cc1 (stereo not shown) [Compound 68a]	145 to 146 °C	39.9	14.6	94.6	0.167	−8.36	−2.32				
CN(C)[C@H](CCNC(=O)N[C@@H]1CCc2ccccc2C1)c1ccsc1 [Compound 71]	112 to 114 °C		1.82		0.177	−3.66	−1.85	10.5	71.2		
CN(C)[C@H](CCNC(=O)N[C@@H]1CCc2ccccc2C1)c1ccsc1 [Compound 72]	147 to 149 °C		2.61		0.197	−0.99	−1.58	39.1	111.9		
CN(C)[C@@H](CCNC(=O)N[C@@H]1CCc2ccccc2C1)c1ccsc1 [Compound 73]	147 to 148 °C	< 1	> 100	13.6	0.422	<−14.83	<−2.96				
CN(C)[C@@H](CCNC(=O)N[C@H]1CCc2ccccc2C1)c1ccsc1 [Compound 74]	144 to 146 °C	< 1	> 100	11.2	> 100						
COc1ccsc1CNCC[C@@]1(c2ccccn2)CCOC2(CCCC2)C1 [oliceridine, N-[(3-methoxythiophen-2-yl)methyl]-2-[(9R)-9-pyridin-2-yl-6-oxaspiro[4.5]decan-9-yl]ethanamine]										decreased on-target adverse effects	higher level of analgesia
